Like-named read-outs stand apart in the source and are kept apart here.
Tests used:
FGFR2 = target: T1, FGFR2 (Homo sapiens, UniProt P21802); test: FGFR wild type enzyme assay (HTRF KinEASE-TK); assay type: biochemical; conditions: ATP 2 uM
T1 construct: biochemical assays using purified intracellular domains of the respective isoforms; purchased Carna Bioscience 08-134
Description: (§1) Activity against FGFR wild type and mutant enzymes were determined in biochemical assays using purified intracellular domains of the respective isoforms using HTRF KinEASE-TK assay technology from CisBio, now PerkinElmer. (Catalogue number 62TK0PEC). Briefly test compounds were tested in 11 point 1:3 serial dilutions, typical final concentration range from 10,000 nM to 0.17 nM. Test compounds were dissolved in DMSO and added to assay plates using acoustic transfer. Enzyme was pre-incubated with test compound for 30 minutes and the assay was initiated by addition of ATP and TK-peptide substrate. After 60 minutes at room temperature the reaction was quenched with detection reagent and incubated for an additional 60 minutes at room temperature. The plates were read using a multimode reader and the emission ratio of 665 nm to 615 nm was determined. This ratio was converted to percent of control (POC). [1-(high control-sample signal)/(high control-low control)]*100. Wells without compound were used to determine high control values and wells without enzyme were used to determine low control values. The POC values were fit using a four-parameter logistic model and the value where the fit curve was equal to 50 POC was reported as the IC50 using the Signals Vitro Vivo software package (PerkinElmer). Final assay conditions were: 50 mM HEPES pH7.5, 10 mM MgCl2, 1 mM EDTA, 0.01% Brij-35, 2 mM MnCl2, 1 mM DTT, and 0.5 uM TK-peptide. The enzyme source, catalogue number, final enzyme concentration, and final ATP concentration can be found in the tables 1-2 below.

FGFR2-WT = FGFR2-WT (Homo sapiens, UniProt P21802); test: Phosphorylated FGFR2-WT (pFGFR2-WT) cell assay, KATOIII cells; assay type: cell-based; conditions: 1 hour incubation, phospho FGFR2 HTRF
Description: KATOIII cells were grown in the appropriate growth medium, IMDM supplemented with 20% fetal bovine serum. Cells were seeded into a 384-well at 1×10^5 cells/25 μL/well. Cells were treated with compound using three-fold serial dilutions at final concentrations ranging from 10 μM to 0.5 nM. Compound was incubated on cells for 1 hour at 37° C., 5% CO2.
Following the 1-hour incubation with compounds, cell lysates were prepared and phospho FGFR2 was measured using the HTRF Phospho-FGFR2 (TYR653/654) Detection Kits (CisBio, cat #64FGFR2Y6PEG). 8 μL of cell lysis buffer (4×) supplied with 1× Phospho and Total protein blocking reagent (CisBio, cat #64FGFR2Y6PEG, CisBio, cat #64KB1AAC) was then added to the wells. Cells were incubated with lysis buffer for 40 minutes at 4° C. under shaking conditions. Plates were centrifuged at 1500 rpm for 3 min and then 16 μL of cell lysate was transferred from the cell-culture plate to a small volume detection plate with the added premixed antibody solutions (4 μL) (CisBio, cat #64FGFR2Y6PEG). Plates were centrifuged at 1000 rpm for 1 min then incubated at 25° C. for 120 min, then overnight at 4° C. Plates were read on the En Vision multimode plate reader via HTRF dual wavelength detection. One hundred percent of control (POC) was determined using DMSO treated samples, and 0 POC was determined using the top concentration of a control compound. A 4-parameter logistic curve was fit to the POC values as a function of compound concentration to determine the IC50 value.

FGFR2 N549H = target: T2, FGFR2 N549H (Homo sapiens, UniProt P21802, N549H); test: FGFR mutant enzyme assay (HTRF KinEASE-TK); assay type: biochemical; conditions: ATP 0.9 uM
T2 construct: biochemical assays using purified intracellular domains of the respective isoforms; purchased Carna Bioscience 08-532
Description: as §1

FGFR2 V564F = target: T3, FGFR2 V564F (Homo sapiens, UniProt P21802, V564F); test: FGFR mutant enzyme assay (HTRF KinEASE-TK); assay type: biochemical; conditions: ATP 1.5 uM
T3 construct: biochemical assays using purified intracellular domains of the respective isoforms; purchased SignalChem Biotech F05-12FG
Description: as §1

FGFR2 V564I = target: T4, FGFR2 V564I (Homo sapiens, UniProt P21802, V564I); test: FGFR mutant enzyme assay (HTRF KinEASE-TK); assay type: biochemical; conditions: ATP 0.4 uM
T4 construct: biochemical assays using purified intracellular domains of the respective isoforms; purchased Carna Bioscience 08-546
Description: as §1

[1] = compound table after the examples, read-out: Enz FGFR2

T4 sequence (P21802 399-821 V564I limits assumed): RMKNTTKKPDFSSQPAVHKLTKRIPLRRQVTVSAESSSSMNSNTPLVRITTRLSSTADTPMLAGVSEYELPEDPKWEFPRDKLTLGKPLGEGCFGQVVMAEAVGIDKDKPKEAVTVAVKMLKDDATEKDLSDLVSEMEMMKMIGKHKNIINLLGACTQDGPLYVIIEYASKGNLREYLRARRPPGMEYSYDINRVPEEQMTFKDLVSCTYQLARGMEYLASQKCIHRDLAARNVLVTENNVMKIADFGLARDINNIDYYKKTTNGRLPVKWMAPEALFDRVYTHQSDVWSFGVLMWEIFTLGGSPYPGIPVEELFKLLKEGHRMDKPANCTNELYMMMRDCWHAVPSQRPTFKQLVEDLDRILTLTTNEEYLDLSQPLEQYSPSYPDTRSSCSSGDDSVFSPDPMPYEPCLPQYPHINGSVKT
T3 sequence (P21802 399-821 V564F limits assumed): as the sequence (P21802 399-821 V564I limits assumed) above, with I166F counted along it
T2 sequence (P21802 399-821 N549H limits assumed): as the sequence (P21802 399-821 V564I limits assumed) above, with N151H, I166V counted along it
T1 sequence (P21802 399-821 limits assumed): as the sequence (P21802 399-821 V564I limits assumed) above, with I166V counted along it
Chain of FGFR2-WT (P21802 430-767 limits assumed): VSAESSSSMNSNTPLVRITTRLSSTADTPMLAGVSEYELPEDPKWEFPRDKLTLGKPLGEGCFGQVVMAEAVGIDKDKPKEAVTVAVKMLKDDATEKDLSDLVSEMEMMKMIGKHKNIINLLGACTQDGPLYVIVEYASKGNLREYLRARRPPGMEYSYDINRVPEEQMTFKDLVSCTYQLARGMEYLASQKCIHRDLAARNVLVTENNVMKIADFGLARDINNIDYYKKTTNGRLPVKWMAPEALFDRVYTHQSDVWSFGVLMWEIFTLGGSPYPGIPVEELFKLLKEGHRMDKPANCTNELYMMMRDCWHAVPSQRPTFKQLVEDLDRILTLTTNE

Structure (SMILES) | IC50 (FGFR2; Table 3, read-out: FGFR2 Enz) | IC50 (FGFR2; [1]) | IC50 (FGFR2-WT) | IC50 (FGFR2 N549H) | IC50 (FGFR2 V564F) | IC50 (FGFR2 V564I)
C[C@@H](Oc1cc(-c2cnn(C3CCNCC3)c2)cn2ncc(C#N)c12)c1ncccc1F [Compound 8, (R)-4-(1-(3-fluoropyridin-2-yl)ethoxy)-6-(1-(piperidin-4-yl)-1H-pyrazol-4-yl)pyrazolo[1,5-a]pyridine-3-carbonitrile] | 0.2 nM | 0.2 nM | 2 nM | 0.05 nM | 0.08 nM | 0.1 nM
C[C@@H](Oc1cc(-c2cnn(C)c2N)cn2ncc(C#N)c12)c1ccccn1 [Compound 35, (R)-6-(5-amino-1-methyl-1H-pyrazol-4-yl)-4-(1-(pyridin-2-yl)ethoxy)pyrazolo[1,5-a]pyridine-3-carbonitrile] | 1 nM | 1 nM | 5 nM | 1 nM | 2 nM | 2.7 nM
Cc1c(-c2cc(O[C@@H](CO)c3ccc(F)cn3)c3c(C#N)cnn3c2)cnn1[C@H]1CC[C@H](O)CC1 [Compound 66, 4-((R)-1-(5-fluoropyridin-2-yl)-2-hydroxyethoxy)-6-(1-((1r,4R)-4-hydroxycyclohexyl)-5-methyl-1H-pyrazol-4-yl)pyrazolo[1,5-a]pyridine-3-carbonitrile] | 105 nM | 110 nM | 793 nM | 106 nM | 139 nM | 369 nM
C[C@@H](Oc1cc(-c2ccc(N3CC[C@@H](O)[C@@H](O)C3)nc2)cn2ncc(C#N)c12)c1ccc(F)cn1 [Compound 25, 6-(6-((3S,4R)-3,4-dihydroxypiperidin-1-yl)pyridin-3-yl)-4-((R)-1-(5-fluoropyridin-2-yl)ethoxy)pyrazolo[1,5-a]pyridine-3-carbonitrile] | 0.3 nM | 0.3 nM | 3 nM | 0.25 nM | 0.7 nM | 1 nM
Cc1c(-c2cc(O[C@H](C)c3ccc(F)cn3)c3c(C#N)cnn3c2)cnn1[C@H]1CC[C@@H](O)CC1 [Compound 46, 4-((R)-1-(5-fluoropyridin-2-yl)ethoxy)-6-(1-((1s,4S)-4-hydroxycyclohexyl)-5-methyl-1H-pyrazol-4-yl)pyrazolo[1,5-a]pyridine-3-carbonitrile] | 0.3 nM | 0.3 nM | 3 nM | 0.3 nM | 1 nM | 1 nM
Cc1c(-c2cc(O[C@H](C)c3ccc(F)cn3)c3c(C#N)cnn3c2)cnn1C [Compound 21, 6(R)-6-(1,5-dimethyl-1H-pyrazol-4-yl)-4-(1-(5-fluoropyridin-2-yl)ethoxy)pyrazolo[1,5-a]pyridine-3-carbonitrile] | 1.7 nM | 1.7 nM | 24 nM | 3 nM | 6 nM | 11 nM
C[C@@H](Oc1cc(-c2ccc(N3CCC(O)CC3)nc2)cn2ncc(C#N)c12)c1ccc(F)cn1 [Compound 56, (R)-4-(1-(5-fluoropyridin-2-yl)ethoxy)-6-(6-(4-hydroxypiperidin-1-yl)pyridin-3-yl)pyrazolo[1,5-a]pyridine-3-carbonitrile] | 0.2 nM | 0.2 nM | 3.4 nM | 0.2 nM | 0.6 nM | 1 nM
Cc1c(-c2cc(O[C@@H](C)c3ccc(F)cn3)c3c(C#N)cnn3c2)cnn1[C@H]1CC[C@H](O)CC1 [Compound 45, 4-((S)-1-(5-fluoropyridin-2-yl)ethoxy)-6-(1-((1r,4S)-4-hydroxycyclohexyl)-5-methyl-1H-pyrazol-4-yl)pyrazolo[1,5-a]pyridine-3-carbonitrile] | 6.5 nM | 6.5 nM | 60 nM | 7 nM | 13 nM | 23 nM
Cc1c(-c2cc(O[C@H](C)c3ncccc3F)c3c(C#N)cnn3c2)cnn1[C@H]1CCCNC1 [Compound 10, 4-((R)-1-(3-fluoropyridin-2-yl)ethoxy)-6-(5-methyl-1-((S)-piperidin-3-yl)-1H-pyrazol-4-yl)pyrazolo[1,5-a]pyridine-3-carbonitrile] | 0.3 nM | 0.3 nM | 5 nM | 0.55 nM | 0.8 nM | 1 nM
Cc1c(-c2cc(O[C@H](C)c3cccnc3)c3c(C#N)cnn3c2)cnn1[C@H]1CC[C@H](O)CC1 [Compound 54, 6-(1-((1r,4R)-4-hydroxycyclohexyl)-5-methyl-1H-pyrazol-4-yl)-4-((R)-1-(pyridin-3-yl)ethoxy)pyrazolo[1,5-a]pyridine-3-carbonitrile] | 0.4 nM | 0.4 nM | 12 nM | 0.5 nM | 1 nM | 1 nM
C[C@@H](Oc1cc(-c2cnn([C@H]3CC[C@H](O)CC3)c2)cn2ncc(C#N)c12)c1ccc(F)cn1 [Compound 55, 4-((R)-1-(5-fluoropyridin-2-yl)ethoxy)-6-(1-((1r,4R)-4-hydroxycyclohexyl)-1H-pyrazol-4-yl)pyrazolo[1,5-a]pyridine-3-carbonitrile] | 0.2 nM | 0.2 nM | 1.6 nM | 0.13 nM | 0.3 nM | 0.6 nM
C[C@@H](Oc1cc(-c2cnn([C@H]3CC[C@H](O)CC3)c2N)cn2ncc(C#N)c12)c1ccc(F)cn1 [Compound 32, 6-(5-amino-1-((1r,4R)-4-hydroxycyclohexyl)-1H-pyrazol-4-yl)-4-((R)-1-(5-fluoropyridin-2-yl)ethoxy)pyrazolo[1,5-a]pyridine-3-carbonitrile] | 0.4 nM | 0.4 nM | 2.5 nM | 0.3 nM | 1 nM | 1 nM
Cc1c(-c2cc(O[C@H](C)c3ccc(F)cn3)c3c(C#N)cnn3c2)cnn1[C@H]1CCCN(C(=O)C2(O)CCC2)C1 [Compound 40, 4-((R)-1-(5-fluoropyridin-2-yl)ethoxy)-6-(1-((S)-1-(1-hydroxycyclobutane-1-carbonyl)piperidin-3-yl)-5-methyl-1H-pyrazol-4-yl)pyrazolo[1,5-a]pyridine-3-carbonitrile] | 1 nM | 1 nM | 6.7 nM | 0.6 nM | 2 nM | 3 nM
Cc1c(-c2cc(O[C@@H](c3ccc(F)cn3)C(F)(F)F)c3c(C#N)cnn3c2)cnn1[C@H]1CC[C@H](O)CC1 [Compound 69, 6-(1-((1r,4S)-4-hydroxycyclohexyl)-5-methyl-1H-pyrazol-4-yl)-4-((S)-2,2,2-trifluoro-1-(5-fluoropyridin-2-yl)ethoxy)pyrazolo[1,5-a]pyridine-3-carbonitrile] | 0.4 nM | 0.4 nM | 2 nM | 1 nM | 1.6 nM | 1.6 nM
Cc1c(-c2cc(O[C@H](C)c3ccc(F)cn3)c3c(C#N)cnn3c2)cnn1[C@H]1CCCN(C(=O)[C@@H](C)O)C1 [Compound 48, 4-((R)-1-(5-fluoropyridin-2-yl)ethoxy)-6-(1-((S)-1-((R)-2-hydroxypropanoyl)piperidin-3-yl)-5-methyl-1H-pyrazol-4-yl)pyrazolo[1,5-a]pyridine-3-carbonitrile] | 0.4 nM | 0.4 nM | 3 nM | 0.4 nM | 1 nM | 1 nM
C[C@H](Oc1cc(-c2cnn(C3CCNCC3)c2)cn2ncc(C#N)c12)c1ccccn1 [Compound 3, (S)-6-(1-(piperidin-4-yl)-1H-pyrazol-4-yl)-4-(1-(pyridin-2-yl)ethoxy)pyrazolo[1,5-a]pyridine-3-carbonitrile] | 21 nM | 21 nM | 128 nM |  |  | 
